Experiments:
[1] = molecular target: T1, surface MR1 on mouse tumor cell lines (Mus musculus, UniProt Q8HWB0); assay: MR1 surface expression on mouse tumor cell lines by flow cytometry; assay type: cell-based; details: for MR1 cell surface expression: 100 nM, 4 hours
T1 construct: endogenous in cells
Protocol: FIG. 2. Up-regulation of MR1 on B16F10 cells increases lung metastases that is dependent on MAIT cells. (A) The schematic and timeline of expanding MAIT cells from splenocytes derived from C57BL/6 WT mice with IL-2 and 5-OP-RU, for sorting and adoptive transfer into tumor-bearing mice. (B, C) Groups of WT or MR1^−/− or Rag2cγ^−/− mice (n=5-6/group) were injected i.v. with (B) 1×10^5 or (C) 1×10^4 B16F10 melanoma cells. In some groups, sorted MAIT or T conventional cells (cT) (non-MAIT αβ^+ T cells) (2×10^5 cells/mouse) from C57BL/6 (B) WT or (C) TCRδ^−/− mice were i.v. injected into the indicated groups of mice one day before tumor inoculation. (C) One group of mice received i.v injection of media alone as a control. (B, C) On day 14 relative to tumor cell inoculation, lungs were harvested and the metastatic burden was quantified by counting colonies on the lung surface. Data presented as mean±SEM. (D) B16F10 or LWT1 melanoma cells were stimulated in vitro with DMSO or 5-OP-RU (100 nM) for 4 hours before cell surface MR1 expression was determined by flow cytometry. Groups of C57BL/6 WT or MR1^−/− mice (n=5-6/group) were i.v. injected with (E) 1×10^5 B16F10 or (F) 5×10^5 LWT1 cells melanoma cells pulsed with DMSO or 5-OP-RU (100 nM, 4 hours). Fourteen days later relative to tumor cell inoculation, lungs were harvested and the metastatic burden was quantified by counting colonies on the lung surface. Data presented as mean±SEM. Experiments performed once for (B, C, F) and three times for (D, E) with one representative experiment shown. Significant differences between groups as indicated by crossbars were determined using a one-way ANOVA followed by Tukey's post-hoc test (B, E, F), *p<0.05, **p<0.01, ****p<0.0001
Naïve or tumor-bearing lung single-cell suspensions were generated as previously described (Blake et al., 2016) and incubated with anti-CD16/32 (2.4G2) to block Fc receptors on ice prior to surface staining with the antibodies. The following antibodies were used for FACs analysis: anti-CD45.2 (104), anti-TCRβ (H57-597), anti-NK1.1 (PK136), anti-NKp46 (29A1.4), anti-CD45R (B220, RA3-6B2), anti-F4/80 (BM8), anti-CD69 (H1.2F3) (all from BioLegend, eBioscience), and MR1 tetramers. For intracellular cytokine staining, cells were surface stained as described above and then fixed and permeabilized with a cytofix/cytoperm kit (BD Biosciences) followed by staining with anti-IFNγ (XMG1.2), anti-TNF (MP6-XT22), anti-IL-17A (TC11-18H10.1) or isotype (eBio299Arm) antibody (all from BioLegend). All data were collected on a Fortessa 4 flow cytometer (BD Biosciences) and analyzed with FlowJo v10 software (TreeStar, Inc.).
(§1) MR1 mRNA transcripts are present in different tissues and cell lines from mice and humans. […] In contrast, whether mouse tumor cell lines express MR1 has not previously been examined. […] Basally, the level of MR1 was almost undetectable on the surface of all tumor cell lines examined (FIG. 2D). […] The kinetics of MR1 upregulation on B16F10 cells was similar to what was previously reported for human C1R cells (B-cell lymphoblastoid cell line) (McWilliam et al., 2016). […] Next, the impact of up-regulation of MR1 on B16F10 or LWT1 prior to i.v injection to WT or MR1−/− mice on the number of lung metastases was assessed.

MR1 on human cell lines = molecular target: T2, MR1 on human cell lines (Homo sapiens, UniProt Q95460); assay: MR1 surface expression on human cell lines after ligand incubation; assay type: cell-based; details: range of human cell lines, after incubation (not shown)
T2 construct: endogenous in cells
Excerpt: as §1

MAIT cells = assay: In vitro co-culture of purified splenic MAIT or conventional T cells with ligand-treated B16F10 cells; assay type: cell-based, mouse
B16F10 cells = assay: B16F10 proliferative and migratory assays in vitro; assay type: cell-based, mouse; details: co-culture of B16F10 with ligand

T1 sequence (Q8HWB0 19-341): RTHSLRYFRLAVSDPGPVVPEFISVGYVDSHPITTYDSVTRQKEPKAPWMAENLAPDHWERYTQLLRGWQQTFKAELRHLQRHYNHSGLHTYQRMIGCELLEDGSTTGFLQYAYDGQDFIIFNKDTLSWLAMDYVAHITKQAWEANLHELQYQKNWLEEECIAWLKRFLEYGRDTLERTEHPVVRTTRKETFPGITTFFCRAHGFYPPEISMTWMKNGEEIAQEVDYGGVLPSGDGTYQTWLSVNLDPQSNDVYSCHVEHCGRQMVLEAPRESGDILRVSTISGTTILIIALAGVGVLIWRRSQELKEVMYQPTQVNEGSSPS
T1 sequence (P01887 21-119 partner): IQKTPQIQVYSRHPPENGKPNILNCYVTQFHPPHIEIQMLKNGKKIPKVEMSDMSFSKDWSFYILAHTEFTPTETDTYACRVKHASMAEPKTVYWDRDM
T2 sequence (Q95460 23-341): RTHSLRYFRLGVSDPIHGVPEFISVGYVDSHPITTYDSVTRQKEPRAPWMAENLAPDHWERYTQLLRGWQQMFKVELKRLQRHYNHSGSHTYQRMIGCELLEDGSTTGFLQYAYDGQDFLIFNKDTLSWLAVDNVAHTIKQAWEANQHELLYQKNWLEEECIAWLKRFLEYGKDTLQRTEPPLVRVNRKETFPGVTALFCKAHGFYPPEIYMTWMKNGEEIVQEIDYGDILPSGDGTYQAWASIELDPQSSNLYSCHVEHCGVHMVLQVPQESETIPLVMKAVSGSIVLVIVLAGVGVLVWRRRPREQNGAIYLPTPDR

Q: Which “lowest ligand concentration that upregulated MR1” value ([1]; B16F10, dose titration) does the source give for `CC(=O)C=Nc1c(NC[C@H](O)[C@H](O)[C@H](O)CO)[nH]c(=O)[nH]c1=O` [5-OP-RU] here?
A: The value was 10 nM.

Q: And the “MR1 cell surface expression” value ([1]; B16F10 melanoma cells)?
A: The value was “substantially upregulated”.

Q: What about the “MR1 cell surface expression” value ([1]; LWT1 melanoma cells) of the same compound?
A: The value was “substantially upregulated”.

Q: What about the “MR1 cell surface expression” value ([1]; MC38 parental or OVA, HcMel3, HcMel12, SM1WT1, MCA1956 cells) of the same compound?
A: The value was “upregulated to a varying extent”.

Q: And the “MR1 cell surface expression” value ([1]; RM-1, 4T1.2 or 3LL carcinoma cells)?
A: Its value is “not upregulated”.

Q: And the MR1 expression (MR1 on human cell lines)?
A: The MR1 expression was “became upregulated”.

Q: What about the cytokine production (MAIT cells; conventional T cells with treated vs DMSO-treated B16F10) of the same compound?
A: Its cytokine production is “no increase in cytokine production”.

Q: What about the “number of treated CTV-labeled B16F10 cells” value (MAIT cells; following co-culture with MAIT cells) of the same compound?
A: The value was “decrease”.

Q: And the “IFNγ, IL-17A and TNF production” value (MAIT cells; purified splenic MAIT cells with treated vs DMSO-treated B16F10)?
A: The value was “produced more”.

Q: What about the “B16F10 biology as measured by proliferative or migratory assays” value (B16F10 cells) of the same compound?
A: Its value is “did not alter the biology of these cells”.

Source: US20220213198A1, “METHOD OF TREATMENT” (The Council of the Queensland Institute of Medical Research, priority 2019, published 2022)
